Assay results taken from patent US10344279B2, “Methods for the prevention and the treatment of extracapillary glomerulonephritis” (INSERM (Institut National de la Sante et de la Recherche …, priority 2014, dated 2019).

Experiments:
miR-92a [1] = experiment: miR-92a expression in kidney / isolated glomeruli of NTS-challenged mice (in situ hybridization, RT-qPCR); format: in vivo
Method: The glomerulonephritis was induced on male mice (10-12 weeks of age) by intravenous injection of 15 μL of sheep anti-glomerular basement membrane (GBM) nephrotoxic serum (NTS), which was diluted with 85 μL of sterile phosphate buffer solution. Serum injections were repeated twice (on days 2 and 3) at 6 μL/g of body weight and 7 μL/g respectively.
For miRNA expression analysis, RNA from kidney cortex were prepared with Trizol (Life Technologies) according to manufacturer's instructions. miRNA expression was determined using Taqman miRNA assay (Life technologies) according to manufacturer's protocols. U6 snRNA was used as endogenous control.
In situ hybridization was performed as previously described by Bonaucr et al (66). Briefly, 5 μm-thick kidney paraffin embedded sections were cut and fixed in PFA 4% for 10 min. Then sections were washed with 1× PBS and then acetylated for 10 min. After washes, sections were incubated with […] (Sigma-Aldrich) for 10 min. at 37° C. After washings, sections were incubated with hybridization buffer for 5 h at room temperature. miRNA probes (miR-92a probe double-DIG labeled LNA probes, Exiqon, final concentration 20 nM) was mixed with denaturation buffer and added to the sections followed by incubation over night at 56° C. U6snRNA probe (3′-DIG labeled LAN, probe, Exiqon) was used at 10 nM final concentration and as a positive control. […]

primary podocytes = experiment: Wound assay of podocyte migration; format: cell-based, mouse; conditions: Stattic 2 μM, migration within 12 hours
Method: After 4 days of primary culture, podocytes were trypsinized then plated into μ-Dish 35 mm high with Culture-Insert (Ibidi). Ibidi's wounding inserts were used for cell migration studies. The coverage of the 500-μm gap was assessed after 12 hours of culture and podocyte migration area was quantified using ImageJ software. The effects of HB-EGF (10 ng/mL, Preprotech) or AG1478 (1 μM, Calbiochem) or anti-mIL-6 monoclonal antibody MP5-20F3 (10 μg/mL, eBiosciences) or Stattic (2 μM, Calbiochem) on differentiated podocytes was applied during 16 hours. After stimulation, podocytes were scrapped in Phosphosafe buffer for protein extraction or in RLT buffer for total RNA extraction.

p57 [2] = experiment: p57 protein expression in transfected podocytes (western blot, immunofluorescence); format: cell-based, mouse; conditions: anti-miR-92a transfected podocytes
Method: (§1) Deparaffinized kidney sections were incubated for 30 minutes at 95° C. in the target retrieval solution (S1699, Dako), then in peroxidase blocking reagent (S2001, Dako), blocked in PBS containing 5% BSA and immunostained against phospho-STAT3 (Tyr705) (Cell Signaling Technology) and phospho-STAT3 (Tyr705) (Millipore), STAT3 (Cell Signaling Technology), podocalyxin (R&D systems), Ki-67 (Abeam) and p57 (Santa Cruz Technology). […] For STAT3 and podocalyxin immunofluorescence, primary antibody incubation was followed by a secondary rabbit anti-goat IgG AF488-conjugated antibody (Invitrogen, 1:400) and a secondary rabbit anti-goat IgG AF594-conjugated antibody (Invitrogen, 1:400) respectively. Podocyte culture cells were immunostained against podocin (ab50339 Abeam), nephrin (ab58968 Abeam), WTI (ab15249 Abeam) or p57 (Santa Cruz Biotechnology). The nuclei were stained using DAPI. Images were obtained with an Axioimager Z1 apotome (Zeiss).
After extraction from glomeruli or podocytes with lysis buffer, proteins were quantified by BCA protein assay kit (iNtRON Biotechnology). Samples were resolved on 4-12% Bis-Tris Criterion XT gels (Bio-Rad) then transferred to a polyvinylidene difloride membrane. […] Protein loading was monitored by using the rat anti-tubulin antibody (Abeam). […] Densitometric analysis with ImageJ software was used for quantification. […]

STAT3 = STAT3 protein level in anti-miR-92a transfected podocytes; format: cell-based, mouse; conditions: data not shown
Method: Anti-miR-Control#1 was used as control (All from Ambion, 50 nM).

miR-92a [3] = experiment: RT-qPCR for miR-92a in transfected primary podocytes; format: cell-based, mouse; conditions: transfection with anti-miR-92a inhibitor (Ambion, 50 nM); normalized to U6
p57 [4] = experiment: p57 immunostaining on kidney sections of NTS-challenged mice; format: in vivo; conditions: NTS-induced decrease; anti-miR-92a administration
Method: as §1
For preventive strategy, antagomiR treatment (12 mg/kg) started 3 days before NTS injection. AntagomiRs (VBC biotech, Vienna) were delivered by retro-orbital i.v. injections under brief anesthesia. Second and third injections were performed on days 1 and 3 with NTS injection. For curative strategy, antagomir were injected on days 4, 5 and 8 after NTS. A scramble antagomiR (Antagomir-Control) was used as control. […]

[5] = system: miR-17, miR-18a, miR-19a and miR-20a; experiment: RT-qPCR of other miR-17-92 cluster members in isolated glomeruli of NTS-challenged mice; format: in vivo; conditions: antagomiR 12 mg/kg i.v., preventive strategy; 10 days after NTS
Method: […] U6 snRNA was used as endogenous control.
For preventive strategy, antagomiR treatment (12 mg/kg) started 3 days before NTS injection. AntagomiRs (VBC biotech, Vienna) were delivered by retro-orbital i.v. injections under brief anesthesia. Second and third injections were performed on days 1 and 3 with NTS injection. For curative strategy, antagomir were injected on days 4, 5 and 8 after NTS. A scramble antagomiR (Antagomir-Control) was used as control. The sequences were obtained from previously published manuscript (66). In the miR-92 antagomir and control antagomir, the 2′O RNA base are methylated followed by first two bases and last 3 bases are phosphorothiated to increase the stability of antagomir from degradation. In addition, a cholesterol-TEG was added at the 3′ for easy entry of antagomir into the cells. AntagomiR-Control (SEQ ID NO: 7, anti-miR-ctrl): 5′-[…]-3′ and antagomiR-92a (SEQ ID NO: 8, anti-miR-92a): 5′-[…]-3′ as shown to be effective after in vivo administration in kidneys (34, 67). Saline-treated mice were used as control of the scramble antagomiR.

Molecule	MicroRNA-92a expression in kidney (miR-92a [1]; NTS-challenged Pod-Stat3 WT animals treated with Stattic, in situ hybridization, confirmed by RT-qPCR)	migratory phenotype of podocytes (primary podocytes)	migratory phenotype of podocytes (primary podocytes; listed as STAT3 inhibitor)	p57 expression (p57 [2])	miR-92a expression in isolated glomeruli during RPGN (miR-92a [1]; antagomiR 12 mg/kg i.v. retro-orbital, preventive strategy, 10 days after NTS)	STAT3 protein level (STAT3)	miR-92a expression in primary culture of podocytes, change (miR-92a [3])	p57 expression in glomeruli (p57 [4])	levels of others miR of 17-92 cluster in isolated glomeruli [5]
O=[N+]([O-])c1ccc2c(c1)S(=O)(=O)C=C2 [Stattic]	not increased	inhibited	little or no effect						
anti-miR-92a: 2′O-methylated, end-phosphorothioated antagomir with 3′ cholesterol-TEG, SEQ ID NO: 8, 5′-CAGGCCGGGACAAGUGCAAUA-3′ (VBC biotech) (listed as RNA, chemistry not fully specified)				increase	specific inhibition	did not affect	−71%	rescued	without modify
